# Measurements taken from ChEMBL document CHEMBL1201862, “PubChem BioAssay data set” (2004).
#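 Exposure lasted 48 hours, with cells grown in 96-well plates and compounds tested at five concentrations. The concentration for 50% growth inhibition is given as GI50.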 The source made the active and inactive calls. Cut-off read from the data, not from the text of the source: active = GI50 up to about 1.1 µM and inactive = higher.
# Experiments:
# Experiment in all cases: growth of human tumour cells (NCI), 48 h
# [1] = test system: SK-MEL-28
# [2] = test system: U-251
# [3] = test system: HL-60
# [4] = test system: NCI-H23
# [5] = test system: OVCAR-5
# [6] = test system: KM12
# [7] = test system: A549
# [8] = test system: OVCAR-3
# [9] = test system: UO-31
# [10] = test system: UACC-257
# [11] = test system: SNB-75
# [12] = test system: SF-295
# [13] = test system: MOLT-4
# [14] = test system: HOP-92
# [15] = test system: OVCAR-8
# [16] = test system: SF-539
# [17] = test system: HOP-62
# [18] = test system: OVCAR-4
# [19] = test system: SNB-19
# [20] = test system: HT-29
Structure (SMILES),GI50 [1],GI50 [2],GI50 [3],GI50 [4],GI50 [5],GI50 [6],GI50 [7],GI50 [8],GI50 [9],GI50 [10],GI50 [11],GI50 [12],GI50 [13],GI50 [14],GI50 [15],GI50 [16],GI50 [17],GI50 [18],GI50 [19],GI50 [20]
CN(C)CCCn1c(-c2ccc(Br)cc2)cs/c1=N\c1ccccc1,18.5 µM (inactive),49.2 µM (inactive),1.4 µM (inactive),10.7 µM (inactive),16.5 µM (inactive),13 µM (inactive),17.5 µM (inactive),10.6 µM (inactive),10.4 µM (inactive),14.6 µM (inactive),15.8 µM (inactive),11.2 µM (inactive),15.4 µM (inactive),15.2 µM (inactive),15.9 µM (inactive),14 µM (inactive),12.9 µM (inactive),16.1 µM (inactive),14.5 µM (inactive),–
Cn1c(=O)n2n(c1=O)C(C)(C13CC4CC(CC(C4)C1)C3)C13CC4CC(CC1C4)CC23 (configuration not stated),> 100 µM (inactive),> 100 µM (inactive),6.76 µM (inactive),> 100 µM (inactive),> 100 µM (inactive),> 100 µM (inactive),> 100 µM (inactive),> 100 µM (inactive),> 100 µM (inactive),> 100 µM (inactive),> 100 µM (inactive),> 100 µM (inactive),89.9 µM (inactive),> 100 µM (inactive),> 100 µM (inactive),> 100 µM (inactive),> 100 µM (inactive),–,> 100 µM (inactive),> 100 µM (inactive)
Cc1nc(N(CCO)CCO)c2sc(=S)n(-c3ccccc3)c2n1,> 100 µM (inactive),> 100 µM (inactive),> 100 µM (inactive),> 100 µM (inactive),> 100 µM (inactive),> 100 µM (inactive),> 100 µM (inactive),> 100 µM (inactive),> 100 µM (inactive),> 100 µM (inactive),10.8 µM (inactive),> 100 µM (inactive),> 100 µM (inactive),> 100 µM (inactive),> 100 µM (inactive),> 100 µM (inactive),> 100 µM (inactive),–,> 100 µM (inactive),> 100 µM (inactive)
COC(=O)C(NC(=O)OC(C)(C)C)P(=O)(OC)OC (configuration not stated),> 100 µM (inactive),> 100 µM (inactive),> 100 µM (inactive),> 100 µM (inactive),> 100 µM (inactive),> 100 µM (inactive),> 100 µM (inactive),> 100 µM (inactive),> 100 µM (inactive),> 100 µM (inactive),–,> 100 µM (inactive),> 100 µM (inactive),> 100 µM (inactive),> 100 µM (inactive),–,> 100 µM (inactive),> 100 µM (inactive),> 100 µM (inactive),> 100 µM (inactive)
Cc1ccc(S(=O)(=O)NCCCSCCN)cc1,> 100 µM (inactive),> 100 µM (inactive),> 100 µM (inactive),> 100 µM (inactive),–,> 100 µM (inactive),> 100 µM (inactive),> 100 µM (inactive),> 100 µM (inactive),> 100 µM (inactive),> 100 µM (inactive),> 100 µM (inactive),> 100 µM (inactive),> 100 µM (inactive),> 100 µM (inactive),–,–,> 100 µM (inactive),> 100 µM (inactive),> 100 µM (inactive)
Nc1ccc2c(c1)C1=NNC(=O)CC1C2 (configuration not stated),> 100 µM (inactive),> 100 µM (inactive),> 100 µM (inactive),> 100 µM (inactive),> 92.5 µM (inactive),> 100 µM (inactive),> 100 µM (inactive),> 31.6 µM (inactive),> 100 µM (inactive),> 100 µM (inactive),78.5 µM (inactive),> 100 µM (inactive),–,> 100 µM (inactive),> 100 µM (inactive),> 100 µM (inactive),> 100 µM (inactive),47.8 µM (inactive),> 100 µM (inactive),> 100 µM (inactive)
c1ccc2c(c1)c1c(n2CCOCCCN2CCCCC2)CCCC1,20.1 µM (inactive),16 µM (inactive),10.1 µM (inactive),17.6 µM (inactive),13.1 µM (inactive),15 µM (inactive),18.4 µM (inactive),13.2 µM (inactive),12.6 µM (inactive),16.8 µM (inactive),16 µM (inactive),–,4.36 µM (inactive),22.7 µM (inactive),17.6 µM (inactive),15.7 µM (inactive),16.3 µM (inactive),12.5 µM (inactive),27.5 µM (inactive),12 µM (inactive)
Cc1nc2c(nc1Cl)nc(Oc1ccc(Cl)cc1)c1ccccc12,> 100 µM (inactive),19.5 µM (inactive),–,45.8 µM (inactive),> 100 µM (inactive),> 100 µM (inactive),34.6 µM (inactive),> 100 µM (inactive),27 µM (inactive),> 100 µM (inactive),26.7 µM (inactive),37.2 µM (inactive),> 100 µM (inactive),–,23.9 µM (inactive),90.8 µM (inactive),28.6 µM (inactive),32 µM (inactive),82.8 µM (inactive),> 100 µM (inactive)
COc1ccc(NC(=S)c2ccc([N+](=O)[O-])o2)cc1,3.22 µM (inactive),0.885 µM (active),1.99 µM (inactive),1.6 µM (inactive),3.02 µM (inactive),1.6 µM (inactive),3.18 µM (inactive),1.19 µM (inactive),2.03 µM (inactive),2.7 µM (inactive),3.19 µM (inactive),3.6 µM (inactive),3.22 µM (inactive),7.8 µM (inactive),1.28 µM (inactive),0.178 µM (active),2.82 µM (inactive),1.55 µM (inactive),2.72 µM (inactive),1.26 µM (inactive)
O=C(c1ccccc1)c1cc(Cl)ccc1NCn1nnc2ccccc21,–,55.2 µM (inactive),25.2 µM (inactive),> 100 µM (inactive),–,33.2 µM (inactive),46 µM (inactive),93.3 µM (inactive),35.8 µM (inactive),55 µM (inactive),35.1 µM (inactive),85.3 µM (inactive),42.1 µM (inactive),91.4 µM (inactive),> 100 µM (inactive),37.8 µM (inactive),> 100 µM (inactive),9.46 µM (inactive),> 100 µM (inactive),51.1 µM (inactive)
CCCC(=O)Nc1cc2c3c(c1)CCCN3CCC2,> 10 µM (inactive),> 10 µM (inactive),> 10 µM (inactive),3.77 µM (inactive),> 10 µM (inactive),> 10 µM (inactive),> 10 µM (inactive),> 10 µM (inactive),–,> 10 µM (inactive),> 10 µM (inactive),> 10 µM (inactive),–,> 10 µM (inactive),> 10 µM (inactive),> 10 µM (inactive),> 10 µM (inactive),> 10 µM (inactive),> 10 µM (inactive),> 10 µM (inactive)
CN(C)c1cccc2c1C(=O)C=CC21CCc2ccc(N(C)C)c3c(N(C)C)ccc1c23 (configuration not stated),15.4 µM (inactive),–,5.01 µM (inactive),16.9 µM (inactive),19.1 µM (inactive),14.8 µM (inactive),18.1 µM (inactive),8.34 µM (inactive),11.9 µM (inactive),11.9 µM (inactive),4.8 µM (inactive),18.8 µM (inactive),12 µM (inactive),12.3 µM (inactive),13.7 µM (inactive),16.3 µM (inactive),14.5 µM (inactive),14.8 µM (inactive),15.2 µM (inactive),13.1 µM (inactive)
C[N+](C)(C)/C=N\c1cccc2c1CCCC2,> 100 µM (inactive),88.3 µM (inactive),0.0885 µM (active),79.6 µM (inactive),> 100 µM (inactive),–,72.9 µM (inactive),> 100 µM (inactive),> 100 µM (inactive),45.1 µM (inactive),56.5 µM (inactive),> 100 µM (inactive),> 100 µM (inactive),17.7 µM (inactive),> 100 µM (inactive),> 100 µM (inactive),> 100 µM (inactive),> 100 µM (inactive),> 100 µM (inactive),58.1 µM (inactive)
CC(C)NC(=O)OCc1nnn2c1CCC2,> 100 µM (inactive),> 100 µM (inactive),> 100 µM (inactive),> 100 µM (inactive),> 100 µM (inactive),> 100 µM (inactive),> 100 µM (inactive),> 100 µM (inactive),> 100 µM (inactive),> 100 µM (inactive),> 100 µM (inactive),> 100 µM (inactive),> 100 µM (inactive),74 µM (inactive),> 100 µM (inactive),> 100 µM (inactive),> 100 µM (inactive),> 100 µM (inactive),–,> 100 µM (inactive)
O=S(O)CCCSSSCCCS(=O)O,> 100 µM (inactive),> 100 µM (inactive),> 100 µM (inactive),> 100 µM (inactive),> 100 µM (inactive),> 100 µM (inactive),–,> 100 µM (inactive),> 100 µM (inactive),> 100 µM (inactive),> 100 µM (inactive),–,> 100 µM (inactive),–,–,> 100 µM (inactive),> 100 µM (inactive),> 100 µM (inactive),> 100 µM (inactive),> 100 µM (inactive)
